Columns and labels:
[1] = tested on: human peripheral blood mononuclear cells (PBMCs); test: LPS-stimulated cytokine release from human PBMCs, checkerboard, Luminex; assay type: cell-based
Method: The anti-inflammatory activity the combination of CBD and hydroxychloroquine was assessed by determining cytokine release from human peripheral blood mononuclear cells (PBMCs) stimulated with bacterial lipopolysaccharide (LPS) using a Luminex based assay. A 96-well microtitre plate-based checkerboard assay with seven concentrations (including the no drug control) of CBD and hydroxychloroquine were assessed in combination was used to determine the drug-drug interaction. Briefly, frozen PMBCs from two independent donors were thawed, diluted in culture medium, seeded into 96-well microtitre plates and incubated at 37° C., 5% CO2 for 1 hour prior to the addition of test compounds. After the addition of the test compounds the cells were returned to the incubator for 1 hour, after which LPS was added to the wells. Plates were incubated at 37° C., 5% CO2 for 24 hours. After 24 hours, cell culture supernatants were removed and analysed for cytokine levels using Luminex methodology according to manufacturers' instructions. All values had the vehicle background subtracted prior to further analysis. Three plates were set up in parallel using the PBMCs from the same donor. Inhibition of cytokine release was determined relative to the no treatment control (i.e., that was stimulated with LPS) and averaged across the three replicates. A cytotoxicity assay using AlmarBlue with the identical plate set up was performed in parallel.
(§1) Drug synergy was determined using the Bliss Independence method where the predicted effect of the drug combination is calculated using the equation: […]

C57BL/6 mice = test: Lipopolysaccharide (LPS)-induced sepsis, serum cytokines; assay type: in vivo
Method: Male C57BL/6 mice weighing 10-20 g were used. Vehicle and active agents (i.e., CBD and hydroxychloroquine) alone or in combination were administered intraperitoneally (IP) or orally at 1 hour before LPS (100 μg/100 μL/mouse) injected intravenously (IV). At 2 hours after LPS injection, blood was collected from all mice by cardiac puncture, sera processed and assayed for biomarkers using either the Th17-plex for IL-1β, IL-2, IL-10, IL-12 (p70), IFN-γ and TNF-α by Luminex, plus IL-6 and D-dimer by ELISA, or the 23-plex for IL-1α, IL-1β, IL-2, IL-3, IL-4, IL-5, IL-6, IL-9, IL-10, IL-12(p40), IL-12(p70), IL-13, IL-17A, Eotaxin, G-CSF, GM-CSF, IFN-γ, KC, MCP-1(MCAF), MIP-1α, […], RANTES, and TNF-α by Luminex, plus IL-6 by ELISA. ANOVA followed by Dunnett's test was applied for comparison between vehicle and treatment groups. p<0.05 is considered significant.
For synergy analysis, data were baseline subtracted using the cytokine levels of sham treated mice (i.e., no LPS injection), before normalizing the values for each cytokine relative to maximum values across the groups. The normalized values were used to calculate the relative inhibition where a value of 1 represents complete inhibition and a value of 0 represents no inhibition. Synergy was calculated using the statistical methods described elsewhere herein.
as §1

Lewis rats [2] = test: Collagen-induced arthritis; assay type: in vivo; conditions: Day 30
Lewis rats [3] = test: Collagen-induced arthritis; assay type: in vivo; parameters: key to Relative reduction in pannus score / Relative reduction in total histology score / Reduction in pannus score / Reduction in total histology score / Reduction in IL-1B / Reduction in IL-6 / Reduction in clinical score: fractional reduction vs vehicle control, sham baseline subtracted
Method: Female Lewis rats were challenged with porcine type-II collagen with Freund's adjuvant on Day 1 (0.2 mg/0.2 mL/rat) by subcutaneous injection at the base of the tail to induce arthritis. A booster injection at 0.1 mg/0.1 mL/rat) was administered on Day 7. On Day 16, rats were allocated into groups of six based on hind paw volume, with animals allocated into groups to provide a similar distribution of hind paw volumes.
Vehicle and active agents (i.e., CBD and hydroxychloroquine) alone or in combination were administered intraperitoneally (IP) once a day starting from Day 17 to Day 30, i.e., for a total of 14 consecutive days.
Disease was assessed by measuring hind paw volume with plethysmometer and using a qualitative severity score system as outlined in Table 16 on Day 1, 7, 10, 14, 16, 18, 20, 22, 24, 26, 28 and 30.
Post-termination on Day 30, blood was collected from all rats and analysed for levels of the inflammatory cytokines […], IL-6 and TNF-α by ELISA. Both hind paws were harvested, weighed and formalin-fixed for histopathology. Tissue was assessed to evaluate cartilage and bone destruction by pannus formation and mononuclear cell infiltration in synovial tissues according to the scoring matrices set out in Tables 17 and 18. A total histology score, being the sum of the pannus formation and mononuclear cell infiltration score, was also calculated.
For synergy analysis, data were baseline subtracted using sham treated […] (i.e., no collagen injection), before normalizing the values relative to vehicle control. Synergy was calculated using the statistical methods described elsewhere herein.

BALB/c mice = test: TNBS-induced colitis; assay type: in vivo; conditions: H&E
Source text: Male BALB/c were used as an in vivo model of colitis, induced by intracolonic administration of 2,4,6-trinitrobenzene sulfonic acid (TNBS) in 50% ethanol, as previously described by Antoniou et al. (2016, Annals of Medicine and Surgery, 11: 9-15). Briefly, the ethanol disrupts the intestinal barrier, permitting TNBS to interact with colon proteins. Interaction of TNBS with high-molecular weight proteins renders them immunogenic, leading to Th1 mediated inflammation, which is causative of symptoms include inconsistent stool formation and blood in the faeces. […]
Other endpoint measures of stool consistency score (i.e., 0—normal stools, 1, soft but still formed stools, 2—very soft stools, 3—diarrhoea), faecal occult blood score (i.e., 0—negative hemoccult, 1—positive hemoccult, 2—blood traces in stool visible, 3—rectal bleeding), colon weight, colon macroscopic damage score (a composite of adhesions, strictures, ulcers/inflammations and wall thickness) and myeloperoxidase levels in the colon tissue were also assessed. The data from each of these endpoints was baseline subtracted using the equivalent measures from sham treated mice (i.e., no TNBS) and reduction in any measure calculated as a relative reduction. Synergy was calculated using the statistical methods described elsewhere herein.

## C=C(C)[C@@H]1CCC(C)=C[C@H]1c1c(O)cc(CCCCC)cc1O [CBD, cannabidiol]
[1]; Donor 1, CBD 5.00 μg/mL
  FIE, IL-1α release: 0.40
  FIE, IL-1β release: 0.38
  FIE, IL-6 release: 0.08
  FIE, MIP-1α release: 0.12
  FIE, TNF-α release: 0.05
[1]; Donor 2, CBD 5.00 μg/mL
  FIE, IL-1α release: 0.28
  FIE, IL-1β release: 0.13
  FIE, IL-6 release: 0.09
  FIE, MIP-1α release: 0.00
  FIE, TNF-α release: 0.07
C57BL/6 mice; CBD 10 mg/kg
  Relative inhibition of IFN-γ release: 0.00
  Relative inhibition of IL-1β release: 0.34
  Relative inhibition of IL-6 release: 0.14
  Relative inhibition of IL-12(p70) release: 0.00
  Relative inhibition of TNF-α release: 0.00
C57BL/6 mice; CBD 25 mg/kg
  Relative inhibition of IL-6 release: 0.03
Lewis rats [2]; CBD 1 mg/kg
  Relative reduction in serum IL-1β level: 0.31
Lewis rats [3]; Day 30, CBD 1 mg/kg
  Relative reduction in pannus score: 0.07
  Relative reduction in serum IL-6 level: 0.50
  Relative reduction in total histology score: 0.11
BALB/c mice; CBD (1 mg/kg)
  Colon tissue histology finding (FIG. 4): regions of inflammatory cell infiltration in submucosal edema

## CCN(CCO)CCCC(C)Nc1ccnc2cc(Cl)ccc12 (stereo not drawn) [HCQ, 2-[[4-[(7-chloro-4-quinolinyl)amino]pentyl]-thylamino]ethanol]
[1]; Donor 1, HCQ 0.63 μg/mL
  FIE, IL-1α release: 0.03
  FIE, IL-1β release: 0.08
  FIE, IL-6 release: 0.12
  FIE, TNF-α release: 0.00
[1]; Donor 1, HCQ 1.25 μg/mL
  FIE, IL-1α release: 0.01
  FIE, IL-1β release: 0.07
  FIE, IL-6 release: 0.00
  FIE, TNF-α release: 0.08
[1]; Donor 1, HCQ 2.50 μg/mL
  FIE, IL-1α release: 0.12
  FIE, IL-1β release: 0.08
  FIE, IL-6 release: 0.10
  FIE, MIP-1α release: 0.00
  FIE, TNF-α release: 0.05
[1]; Donor 1, HCQ 5.00 μg/mL
  FIE, IL-1α release: 0.24
  FIE, IL-1β release: 0.17
  FIE, IL-6 release: 0.08
  FIE, TNF-α release: 0.02
[1]; Donor 1, HCQ 10.00 μg/mL
  FIE, IL-1α release: 0.50
  FIE, IL-1β release: 0.68
  FIE, IL-6 release: 0.00
  FIE, TNF-α release: 0.04
[1]; Donor 1, HCQ 20.00 μg/mL
  FIE, IL-1α release: 0.54
  FIE, IL-1β release: 0.81
  FIE, IL-6 release: 0.12
  FIE, MIP-1α release: 0.00
  FIE, TNF-α release: 0.30
[1]; Donor 2, HCQ 0.63 μg/mL
  FIE, IL-1α release: 0.07
  FIE, IL-1β release: 0.06
[1]; Donor 2, HCQ 1.25 μg/mL
  FIE, IL-1α release: 0.11
[1]; Donor 2, HCQ 2.50 μg/mL
  FIE, IL-1α release: 0.19
  FIE, IL-1β release: 0.07
[1]; Donor 2, HCQ 5.00 μg/mL
  FIE, IL-1α release: 0.49
  FIE, TNF-α release: 0.02
[1]; Donor 2, HCQ 10.00 μg/mL
  FIE, IL-1α release: 0.68
  FIE, IL-6 release: 0.11
  FIE, MIP-1α release: 0.00
  FIE, TNF-α release: 0.18
[1]; Donor 2, HCQ 20.00 μg/mL
  FIE, IL-1α release: 0.63
  FIE, IL-6 release: 0.47
  FIE, MIP-1α release: 0.00
Lewis rats [2]; HCQ 2.5 mg/kg
  Relative reduction in serum IL-1β level: 0.37
Lewis rats [3]; Day 24, HCQ 25 mg/kg
  Reduction in clinical score: 0.21
  Reduction in paw volume: 0.10
Lewis rats [3]; Day 30, HCQ 2.5 mg/kg
  Relative reduction in pannus score: 0.07
  Relative reduction in serum IL-6 level: 0.51
  Relative reduction in total histology score: 0.15
Lewis rats [3]; Day 30, HCQ 25 mg/kg
  Reduction in clinical score: 0.26
  Reduction in paw volume: 0.20
Lewis rats [3]; HCQ 25 mg/kg
  Reduction in mononuclear cell infiltration: 0.24
  Reduction in pannus score: 0.28
  Reduction in total histology score: 0.26
Lewis rats [3]; serum, HCQ 25 mg/kg
  Reduction in IL-1B: 0.25
  Reduction in IL-6: 0.36
BALB/c mice; hydroxychloroquine (2.5 mg/kg)
  Colon tissue histology finding (FIG. 4): regions of mild abnormality, cyctic dilation and aberrant crypts
